Measured values taken from patent publication US12624044B2, “SMARCA degraders and uses thereof” (Kymera Therapeutics, Inc., priority 2019, dated 2026).

Target: SMARCA2 (Homo sapiens, UniProt P51531)
Test: MSD SMARCA2 degradation in A549 cell line
Assay type: cell-based
Conditions: 24 h; for Dmax: A549, A549 cells; for DC50: A549 cells, read-out: SMARCA2 MSD A549 degradation 24 h: Average external-Abs DC50
How it was run: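 SMARCA2 remaining was measured by MSD electrochemiluminescence on RIPA lysates (anti-SMARCA2 plus SULFO-TAG anti-rabbit). Prior exposure: 24 h of A549 cells to a 10-point, 3-fold dilution series topping at 1000 nM final; Dmax % given as graded codes.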

Chain of SMARCA2 (P51531 whole entry): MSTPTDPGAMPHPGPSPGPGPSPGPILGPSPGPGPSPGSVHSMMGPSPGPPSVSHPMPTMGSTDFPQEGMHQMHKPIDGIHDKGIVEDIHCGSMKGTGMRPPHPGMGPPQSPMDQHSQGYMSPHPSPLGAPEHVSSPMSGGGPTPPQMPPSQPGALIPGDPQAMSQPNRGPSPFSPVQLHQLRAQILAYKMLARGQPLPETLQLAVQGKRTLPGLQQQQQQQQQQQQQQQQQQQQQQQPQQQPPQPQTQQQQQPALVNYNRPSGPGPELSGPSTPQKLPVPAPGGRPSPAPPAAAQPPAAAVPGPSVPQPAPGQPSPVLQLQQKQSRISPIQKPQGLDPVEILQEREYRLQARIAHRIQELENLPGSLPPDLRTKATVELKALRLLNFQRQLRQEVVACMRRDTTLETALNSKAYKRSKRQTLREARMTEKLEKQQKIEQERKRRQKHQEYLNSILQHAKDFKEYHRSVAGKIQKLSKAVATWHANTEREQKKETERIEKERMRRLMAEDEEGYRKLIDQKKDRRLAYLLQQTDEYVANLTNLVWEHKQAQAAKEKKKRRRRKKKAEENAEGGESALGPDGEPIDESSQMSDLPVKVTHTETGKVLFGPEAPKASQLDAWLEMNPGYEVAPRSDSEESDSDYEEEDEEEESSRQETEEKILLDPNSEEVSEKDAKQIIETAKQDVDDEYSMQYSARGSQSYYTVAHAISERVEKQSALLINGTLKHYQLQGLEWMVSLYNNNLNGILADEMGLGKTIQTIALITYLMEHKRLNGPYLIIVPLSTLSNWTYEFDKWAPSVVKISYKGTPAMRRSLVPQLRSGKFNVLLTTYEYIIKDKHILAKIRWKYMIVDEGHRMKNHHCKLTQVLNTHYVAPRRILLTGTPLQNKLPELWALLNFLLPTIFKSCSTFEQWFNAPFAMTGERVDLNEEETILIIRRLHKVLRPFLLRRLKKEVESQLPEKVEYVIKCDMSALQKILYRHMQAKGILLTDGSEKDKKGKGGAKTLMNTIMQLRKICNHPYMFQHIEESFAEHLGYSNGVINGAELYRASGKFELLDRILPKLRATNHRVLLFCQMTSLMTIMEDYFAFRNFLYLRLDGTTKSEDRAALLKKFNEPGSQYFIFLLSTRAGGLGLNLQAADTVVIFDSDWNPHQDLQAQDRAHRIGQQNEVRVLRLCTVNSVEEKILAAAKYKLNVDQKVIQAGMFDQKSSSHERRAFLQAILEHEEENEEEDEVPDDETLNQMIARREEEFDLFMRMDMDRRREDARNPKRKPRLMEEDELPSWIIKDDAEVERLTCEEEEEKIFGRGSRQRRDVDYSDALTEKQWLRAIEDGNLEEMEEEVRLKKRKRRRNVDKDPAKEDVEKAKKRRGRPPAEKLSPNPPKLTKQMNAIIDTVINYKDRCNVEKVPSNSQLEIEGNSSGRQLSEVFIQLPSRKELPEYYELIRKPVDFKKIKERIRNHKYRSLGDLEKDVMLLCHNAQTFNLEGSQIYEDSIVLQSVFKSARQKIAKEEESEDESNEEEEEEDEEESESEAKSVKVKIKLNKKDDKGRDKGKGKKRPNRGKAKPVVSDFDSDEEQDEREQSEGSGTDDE

| Compound | Dmax [%] | DC50 [nM] |
| --- | --- | --- |
| Cn1c(=O)n(C2CCC(=O)NC2=O)c2ccc(CCCCCCCc3nccc(N4C5CCC4CN(c4cc(-c6ccccc6O)nnc4N)C5)n3)cc21 (stereo not drawn) [I-287, 3-(5-(7-(4-(3-(3-amino-6-(2-hydroxyphenyl)pyridazin-4-yl)-3,8-diazabicyclo[3.2.1]octan-8-yl)pyrimidin-2-yl)heptyl)-3-methyl-2-oxo-2,3-dihydro-1H-benzo[d]imidazol-1-yl)piperidine-2,6-dione] | 70 to 90 | 100 to 500 |
| Cc1ncsc1-c1ccc(CNC(=O)[C@@H]2C[C@@H](O)CN2C(=O)[C@@H](NC(=O)[C@H]2CC[C@@H](c3cnc(N4C5CCC4CN(c4cc(-c6ccccc6O)nnc4N)C5)nc3)CC2)C(C)(C)C)cc1 [I-336] | > 90 | 100 to 500 |
| Cc1ncsc1-c1ccc(CNC(=O)[C@@H]2C[C@@H](O)CN2C(=O)[C@@H](NC(=O)[C@H]2CC[C@H](c3cnc(N4C5CCC4CN(c4cc(-c6ccccc6O)nnc4N)C5)nc3)CC2)C(C)(C)C)cc1 [I-337, (2S,4R)-1-((2S)-2-((1r,4S)-4-(2-(3-(3-amino-6-(2-hydroxyphenyl)pyridazin-4-yl)-3,8-diazabicyclo[3.2.1]octan-8-yl)pyrimidin-5-yl)cyclohexanecarboxamido)-3,3-dimethylbutanoyl)-4-hydroxy-N-(4-(4-methylthiazol-5-yl)benzyl)pyrrolidine-2-carboxamide] | > 90 | < 100 |
| Cc1ncsc1-c1ccc(CNC(=O)[C@@H]2C[C@@H](O)CN2C(=O)[C@@H](NC(=O)[C@H]2CC3(C2)C[C@H](N2CCC(n4cc(-c5cc(-c6ccccc6O)nnc5N)cn4)CC2)C3)C(C)(C)C)cc1 (stereo partly drawn) [I-389] | > 90 | 100 to 500 |
| Cc1ncsc1-c1ccc(CNC(=O)[C@@H]2C[C@@H](O)CN2C(=O)[C@@H](NC(=O)[C@H]2CC[C@@H](CN3CCC(n4cc(-c5cc(-c6ccccc6O)nnc5N)cn4)CC3)CC2)C(C)(C)C)cc1 [I-402] | 70 to 90 | 100 to 500 |
| Cc1ncsc1-c1ccc(CNC(=O)[C@@H]2C[C@@H](O)CN2C(=O)[C@@H](NC(=O)[C@H]2CC[C@H](CN3CCC(n4cc(-c5cc(-c6ccccc6O)nnc5N)cn4)CC3)CC2)C(C)(C)C)cc1 [I-403] | > 90 | 100 to 500 |
